Several values for one entry are separate records, joined by “and”; a condition that tells them apart may be missing. Equal values may be shown once. Starred links: 1 amine or outer side, 2 acyl side, 3 side chain; linkers in the order of their positions; H or OH if unused. Positions of bridges follow the written chain, without caps; N, C: chain ends. Non-standard residues stand in square brackets, D forms with d. Residues, ends and D or L forms follow the SMILES beside them. Groups on a side chain read outwards from the residue. *: point of attachment. Biotin = O=C1N[C@H]2[C@H](CS[C@H]2CCCCC(=O)*)N1; Phe(4-F) = N[C@@H](Cc1ccc(F)cc1)C(=O)O; X1 = CCCCCCC[C@H](N[*:1])C(=O)[*:2]; Nle = CCCC[C@H](N)C(=O)O; X2 = C(C[*:1])C[*:2]; Ahx = NCCCCCC(=O)O; βAla = NCCC(=O)O
Experiments:
[1] = molecular target: T1, recombinant K-Ras(G12D) protein (Homo sapiens, UniProt P01116, G12D); experiment: Cell-free ELISA binding of biotin-labeled peptides; conditions: Fig. 4A
T1 construct: purchased Abcam ab268712
Protocol: (§2) Ras protein was directly coated to wells of Nunc MaxiSorp microplate in PBS containing 0.01 mM GDP and 10 mM MgCl2 overnight at 4 °C. The wells were blocked in PBS containing 0.1% bovine serum albumin (BSA) for 0.5 h at 25 °C.
For binding assays of biotin-labeled peptides, Ras protein (25 μg/mL) was coated to wells of Nunc MaxiSorp 96-well clear plate (439,454) as described above. After washing the wells three times using PBS containing 0.1% Tween20 (PBST), biotin-labeled peptides in PBS containing 0.025% BSA, 0.01 mM GDP, and 10 mM MgCl2 were added to the wells. After 0.5 h incubation at 25 °C, the wells were washed with PBST three times. Bound biotin-labeled peptides were detected using horseradish peroxidase (HRP)-conjugated streptavidin (SA) (ab7403, Abcam) and 1-Step Ultra TMB-ELISA Substrate Solution (34028, Thermo Fisher Scientific). The amounts of HRP in the wells were measured by absorbance to 450 nm.

[2] = system: PANC-1 xenografts (pancreas weight); experiment: Combination administration test of KS-58 and gemcitabine; format: in vivo, mice; conditions: gemcitabine alone, 40 mg/kg intraperitoneally once every 4 days for 4 weeks
Protocol: To establish orthotropic xenograft tumor models, 2.5 × 10^6 cells/50 µL of PANC-1 cells were injected into the pancreas of BALB/cAJcl-nu/nu male mice (8 weeks old; CLEA Japan, Inc.). KS-58 was dissolved in DMSO and then tenfold diluted by saline. The peptide solution was then injected intravenously to the mice bearing tumors once every 2 days for 4 weeks (40 mg/kg, n = 7). Organ weights of the pancreas, liver, and kidney were measured. In combination administration test, gemcitabine hydrochloride solution (Nipponkayaku) was tenfold diluted by saline and then injected intraperitoneally to the mice bearing tumors once every 4 days for 4 weeks (40 mg/kg, n = 10), and peptide solution prepared as a same manner described above was injected intravenously to the mice bearing tumors once every 2 days for 4 weeks (10, 20, or 40 mg/kg, n = 10). Organ weights of the pancreas were measured.

[3] = molecular target: Recombinant human K-Ras(G12D) (human) (UniProt P01116)
[4] = molecular target: SmBiT-fused K-Ras(G12D) (human) (UniProt P01116); experiment: split reporter (BiFC, NanoBiT); NanoBiT in transfected HEK293T cells; peptides (30 µM) added to the cells for 2 h; remaining K-Ras(G12D)-SOS1 or K-Ras(G12D)-BRAF luminescence in % of no peptide
[5] = system: A427 cells; experiment: Cell proliferation assay (CellTiter-Glo, 72 h); format: cell-based, human; conditions: A427 (G12D), peptide 30 µM, n = 4, ± SEM
Protocol: A427 (ATCC HTB-53), A549 (ATCC CCL-185), H1975 (ATCC CRL-5908), PANC-1 (ATCC CRL-1469), MIA PaCa-2 (ATCC CRL-1420), and Capan-1 (ATCC HTB-79) cells were purchased from ATCC, and each cell was cultured in medium supplemented with 10% fetal bovine serum (FBS), according to the protocol recommended by the manufacture.
The effect of peptides on cell proliferation of A427, A549, H1975, PANC-1, MIA PaCa-2, and Capan-1 cells was determined by 72 h exposure to peptides. Cells were seeded at 1000 cells/well in 96-well tissue culture plates in each growth media and allowed to adhere overnight on day 0. Peptides were solved in DMSO and then diluted with each growth media for a constant final DMSO concentration of 0.5%. Media in the wells were removed and replaced with diluted peptide solutions, and cells were incubated for 3 days. During the incubation, medium containing the peptides was replaced every day. Relative cell numbers were estimated using CellTiter-Glo assay kit (G7570, Promega, WI, USA) according to the manufacturer’s instructions. Luminescence was detected using SpectraMax i3x (MOLECULAR DEVICES, CA, USA). Cell proliferation rate (%) was calculated based on cell numbers at day 0 as 0% and at day 3 without peptide treatment as 100%.

[6] = molecular target: T2, K-Ras(G12D)^GDP–SOS1 interaction (Homo sapiens, UniProt P01116, G12D); experiment: Intracellular PPI inhibition assay using NanoBiT in HEK293T cells; format: cell-based; conditions: peptide 30 µM, n = 4
T2 construct: host or cells: HEK293T
Protocol: (§1) Intracellular protein–protein interaction (PPI) inhibition assays were carried out using the NanoBiT system (Promega). Three kinds of plasmids with CMV promoters, which encodes human K-Ras(G12D) fusing SmBiT to the N-terminus, encodes human SOS1 fusing LgBiT to the C-terminus, and encodes human BRAF fusing LgBiT to the C-terminus, were prepared by Promega. Each combination of plasmids was transfected to HEK293T cells by FuGENE HD Reagent (E2312, […]). After 30 h incubation at 37 °C under 5% CO2, the cells were recovered, and seeded to 96-well tissue culture white plate with 10% FBS containing DMEM, and incubated overnight. Peptides were added to the plate and incubated for another 2 h. Nano-Glo (Promega, N2011) was directly added to the plate, and luminescence was immediately monitored. Intracellular K-Ras(G12D)^GDP–SOS1 and K-Ras(G12D)^GTP–BRAF interactions (%) were calculated based on no peptide treatment as 100% and only transfection of plasmid encoding LgBiT fusion protein as 0%.

[7] = molecular target: T3, K-Ras(G12D)^GTP–BRAF interaction (Homo sapiens, UniProt P01116, G12D); experiment: as above; format: cell-based; conditions: peptide 30 µM, n = 4
T3 construct: host or cells: HEK293T
Protocol: as §1

[8] = molecular target: T1, recombinant K-Ras(G12D) protein; experiment: Competition binding assay (ELISA) against Biotin-KRpep-2d; conditions: competitive inhibition of Biotin-KRpep-2d (100 nM) binding; n = 4, ± SEM
Protocol: as §2
For competition binding assays, Ras protein (250 ng/mL) was coated to wells of Nunc MaxiSorp 96-well clear plate (439454) as described above. […] The amounts of HRP in the wells were measured by absorbance at 450 nm.

## CCCCCCC[C@@H]1NC(=O)[C@@H]2CSCCCSC[C@@H](NC(=O)[C@H](Cc3c[nH]c4ccccc34)NC(=O)[C@H](CCCCNC(=O)CCCCCNC(=O)CCCC[C@@H]3SC[C@@H]4NC(=O)N[C@@H]43)NC(=O)[C@H](CC(=O)O)NC(=O)[C@H](Cc3ccc(F)cc3)NC(=O)[C@H](CO)NC1=O)C(=O)NCCC(=O)N1CCC[C@H]1C(=O)N[C@@H](CCCC)C(=O)N2 [Biotin-KS-58, c[βAla-Pro-Nle-c(Cys-Anon-Ser-4fF-Asp-Lys(εN-biotin)-Trp-^DCys)]] (cyclo([βAla]P[Nle]C[X1]S[Phe(4-F)]DK([Ahx-Biotin])W[dC]); linker 4-11 via X2)
[1]
  Binding activity to K-Ras(G12D) protein in ELISA (in words): peptide concentration-dependent binding

## Nc1ccn([C@@H]2O[C@H](CO)[C@@H](O)C2(F)F)c(=O)n1 [Gemcitabine, gemcitabine]
[2]
  cell growth of PANC-1 (pancreas weight; Sham = 0%, vehicle = 100%): 66%

## KS-58 (peptide)
[3]
  cell proliferation (%) of A427 cells (K-Ras G12D) at 30 µM peptide, 72 h, CellTiter-Glo: 21.1%
  cell proliferation (%) of PANC-1 cells (K-Ras G12D) at 30 µM peptide, 72 h, CellTiter-Glo: 50.1%
  pERK (%) in A427 cells (K-Ras G12D) at 30 µM peptide: 26%
  pERK (%) in PANC-1 cells (K-Ras G12D) at 30 µM peptide: 57.6%
[4]
  percent of K-Ras(G12D)-BRAF NanoBiT luminescence left at 30 µM peptide: 53.8%
  percent of K-Ras(G12D)-SOS1 NanoBiT luminescence left at 30 µM peptide: 35.5%

## c(βAla-Pro-Nle-Cys-Anon-Ser-4fF-Asp-Pro-Trp-^DCys) [KS-58(monocyclic)]
[5]
  Cell proliferation (%): 87.1 ± 1.4%
[6]
  Intracellular K-Ras(G12D)^GDP–SOS1 interaction (luminescence, %): weaker inhibition activity than KS-58
[7]
  Intracellular K-Ras(G12D)^GTP–BRAF interaction (luminescence, %): weaker inhibition activity than KS-58

## c[Arg-Arg-Arg-Arg-c(Dap-Pro-Nle-Trp-Anon-Dap-Cha-Asp-Pro-Trp-Asp)-Arg-Arg-Arg-Arg] [KS-36]
[5]
  Cell proliferation (%): 33.1% and 33.1 ± 9.6%
[8]
  K-Ras(G12D)-binding activity, fold-value compared to the parental KRpep-2d set as 1.0: about 30 Fold

Reference: article PMC7730438, “Generation of KS-58 as the first K-Ras(G12D)-inhibitory peptide presenting anti-cancer activity in vivo” (Scientific Reports, 2020)
